Measured values: PMC9060465 (Proceedings of the National Academy of Sciences of the …, 2022)

How the values were obtained:
GLP-1R [1] = target: T1, GLP-1R (Homo sapiens, UniProt P43220); test: β-arrestin 1 recruitment to the GLP-1R, NanoBRET; assay type: cell-based; design: expressed in transfected cells
Description: Functional potency (EC50) […]
and efficacy (% Top) of ligands to induce Gα s -GTPγS binding and cAMP accumulation in HEK293 cells expressing GIPR were determined. The equilibrium affinity (KD) of ligands for the immobilized ectodomain of the GIPR were quantified by surface plasmon resonance. Middle Panel: The affinity (Ki) of ligands for the GLP-1R was […]
(§1) Functional potency (EC50) and efficacy (% Top) of ligands to induce Gα s-GTPγS binding and cAMP accumulation in HEK293 cells expressing GLP-1R were determined. The equilibrium affinity (KD) of ligands for the immobilized ectodomain of the GLP-1R were quantified by surface plasmon resonance. […]
(§2) recruitment to the GLP-1R were determined using the NanoBRET approach. The potency (EC50) and efficacy (% Top) for ligands to induce GLP-1R Internalization were determined using diffusion-enhanced resonance energy transfer. […]
relative efficacy for NanoBRET assays. SPR data were analyzed using T200 evaluation software (Cytiva). All data are presented as geometric means with SEM and n values according to established practices. ND, not determined. NA, not applicable.
Target sequence in this assay (P43220 24-463): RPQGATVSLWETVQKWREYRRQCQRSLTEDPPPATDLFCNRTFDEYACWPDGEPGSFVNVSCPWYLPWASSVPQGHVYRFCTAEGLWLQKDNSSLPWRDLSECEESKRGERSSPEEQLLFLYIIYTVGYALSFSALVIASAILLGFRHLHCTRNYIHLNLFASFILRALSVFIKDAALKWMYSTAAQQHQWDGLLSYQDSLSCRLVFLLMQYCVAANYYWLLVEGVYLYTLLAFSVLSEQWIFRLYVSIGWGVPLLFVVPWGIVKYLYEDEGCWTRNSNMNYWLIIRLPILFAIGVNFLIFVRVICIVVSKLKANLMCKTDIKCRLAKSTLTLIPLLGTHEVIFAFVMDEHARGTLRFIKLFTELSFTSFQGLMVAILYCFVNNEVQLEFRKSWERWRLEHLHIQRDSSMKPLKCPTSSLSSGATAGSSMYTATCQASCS
Target sequence in this assay (P49407 whole entry partner): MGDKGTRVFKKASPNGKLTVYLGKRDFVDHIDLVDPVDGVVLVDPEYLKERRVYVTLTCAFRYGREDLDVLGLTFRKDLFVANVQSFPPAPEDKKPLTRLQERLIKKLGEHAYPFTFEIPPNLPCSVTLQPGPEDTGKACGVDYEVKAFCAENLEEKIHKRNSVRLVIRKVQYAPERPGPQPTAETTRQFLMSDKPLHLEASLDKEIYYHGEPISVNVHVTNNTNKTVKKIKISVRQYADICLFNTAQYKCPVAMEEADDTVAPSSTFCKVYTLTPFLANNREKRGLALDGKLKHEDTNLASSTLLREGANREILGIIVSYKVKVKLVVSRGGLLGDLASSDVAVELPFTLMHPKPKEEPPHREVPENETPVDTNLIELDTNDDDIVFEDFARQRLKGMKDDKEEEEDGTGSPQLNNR

GLP-1R [2] = target: T1, GLP-1R; test: Ligand-induced GLP-1R internalization, SNAP-GLP-1R HEK293 cells; assay type: cell-based
Target sequence in this assay (P43220 24-463): as the sequence (P43220 24-463) above

GLP-1R [3] = target: T1, GLP-1R; test: GRK2 recruitment to the GLP-1R, NanoBRET; assay type: cell-based; design: expressed in transfected cells; host or cells: freestyle HEK cells
Description: After 48 h, transfected cells were incubated in phosphate-buffered saline (PBS) containing 0.1% (wt/vol) bovine casein and varying concentrations of the ligands. […]
The potency (EC50) and efficacy (% Top) for ligands to induce GLP-1R Internalization were
determined using diffusion-enhanced resonance energy transfer.
relative efficacy for NanoBRET assays. SPR data were analyzed using T200 evaluation software (Cytiva). All data are presented as geometric means with SEM and n values
according to established practices. ND, not determined. NA, not applicable.
Target sequence in this assay (P43220 24-463): as above
Target sequence in this assay (P25098 whole entry partner): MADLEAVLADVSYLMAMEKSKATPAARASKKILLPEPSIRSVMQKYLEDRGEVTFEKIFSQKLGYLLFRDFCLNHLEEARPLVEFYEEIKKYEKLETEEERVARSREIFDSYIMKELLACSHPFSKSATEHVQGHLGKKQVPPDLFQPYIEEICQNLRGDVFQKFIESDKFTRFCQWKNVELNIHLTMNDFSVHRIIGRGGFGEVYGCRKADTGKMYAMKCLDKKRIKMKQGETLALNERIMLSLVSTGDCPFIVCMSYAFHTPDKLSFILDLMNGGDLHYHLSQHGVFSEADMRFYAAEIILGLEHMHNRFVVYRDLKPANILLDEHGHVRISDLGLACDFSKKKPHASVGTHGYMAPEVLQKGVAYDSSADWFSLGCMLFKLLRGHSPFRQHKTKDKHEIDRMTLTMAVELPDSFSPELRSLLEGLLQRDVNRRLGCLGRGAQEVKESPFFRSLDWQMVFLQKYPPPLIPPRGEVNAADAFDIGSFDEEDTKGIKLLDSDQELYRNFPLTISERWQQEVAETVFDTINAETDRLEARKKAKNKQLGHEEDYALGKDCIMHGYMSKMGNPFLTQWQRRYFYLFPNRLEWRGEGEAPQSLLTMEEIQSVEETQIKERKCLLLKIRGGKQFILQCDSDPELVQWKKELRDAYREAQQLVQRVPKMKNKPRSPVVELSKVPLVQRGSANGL

[4] = target: T2, ECD of human GIPR (amino acids 26 to 138) (Homo sapiens, UniProt P48546); test: GIPR extracellular domain binding by surface plasmon resonance; conditions: equilibrium affinity, immobilized GIPR ectodomain, Biacore T200, HBS-EP pH 7.6; (SEM, n); read-out: GIPR SPR KD
T2 construct: human GIPR (amino acids 26 to 138); 6His; made in house; host or cells: CHO cells
T2 sequence (P48546 26-138): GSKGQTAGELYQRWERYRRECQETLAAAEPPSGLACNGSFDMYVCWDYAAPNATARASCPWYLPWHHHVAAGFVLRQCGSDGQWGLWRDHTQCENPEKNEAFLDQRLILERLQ
From the text: DNA encoding each protein was transfected into CHO cells for expression. After expression, the proteins were purified by affinity chromatography (HIS-Trap Ni, Cytiva) followed by size exclusion chromatography using a HiLoad 26/600 Superdex 75pg column (Cytiva) with PBS buffer. […] Surface plasmon resonance measurements were made using a Biacore T200 (Cytiva) and analyzed using T200 Evaluation Software Version 3.1. Receptor ectodomain proteins were covalently immobilized (∼250 resonance units) on Sensor Chip CM4 BR100534 using the Amine coupling Immobilization Wizard in the Biacore T200 Control Software Version 2.0.2. […]
and efficacy (% Top) of ligands to induce Gα s -GTPγS binding and cAMP accumulation in HEK293 cells expressing GIPR were determined. The equilibrium affinity (KD) of ligands for the immobilized ectodomain of the GIPR were quantified by surface plasmon resonance. […]
as §1, §2

For CC[C@H](C)[C@H](NC(=O)[C@H](CC(C)C)NC(=O)[C@H](Cc1c[nH]c2ccccc12)NC(=O)[C@H](CCC(N)=O)NC(=O)[C@@H](NC(=O)[C@H](Cc1ccccc1)NC(=O)[C@H](C)NC(=O)[C@H](CCCCN)NC(=O)[C@H](CCC(N)=O)NC(=O)[C@H](C)NC(=O)[C@@H](NC(=O)[C@H](CCCCN)NC(=O)[C@H](CC(=O)O)NC(=O)[C@H](CC(C)C)NC(=O)C(C)(C)NC(=O)[C@@H](NC(=O)[C@H](CO)NC(=O)[C@H](Cc1ccc(O)cc1)NC(=O)[C@H](CC(=O)O)NC(=O)[C@H](CO)NC(=O)[C@@H](NC(=O)[C@H](Cc1ccccc1)NC(=O)[C@@H](NC(=O)CNC(=O)[C@H](CCC(=O)O)NC(=O)C(C)(C)NC(=O)[C@@H](N)Cc1ccc(O)cc1)[C@@H](C)O)[C@@H](C)O)[C@@H](C)CC)[C@@H](C)CC)C(C)C)C(=O)N[C@@H](C)C(=O)NCC(=O)NCC(=O)N1CCC[C@H]1C(=O)N[C@@H](CO)C(=O)N[C@@H](CO)C(=O)NCC(=O)N[C@@H](C)C(=O)N1CCC[C@H]1C(=O)N1CCC[C@H]1C(=O)N1CCC[C@H]1C(=O)N[C@@H](CO)C(N)=O [Tzp∆C20], the EC50 (GLP-1R [1]; NanoBRET, geometric mean (SEM, n), read-out: GLP-1R β-Arr1 Recruitment EC50) was 3.99 nM, the “GLP-1R β-Arr1 Recruitment Top” value (GLP-1R [1]; efficacy (% Top), relative efficacy to GLP-1, (SEM)) was 25.9 (2.6) % and the EC50 (GLP-1R [2]; diffusion-enhanced resonance energy transfer, SNAP-GLP-1R HEK293 cells, 37 °C, geometric mean (SEM, n)) was 5.47 nM. The “GLP-1R Internalization Top” value (GLP-1R [2]; efficacy (% Top), percent internalization compared to maximal GLP-1, (SEM)) was 90.6 (3.0) %, the EC50 (GLP-1R [3]; NanoBRET, transfected freestyle HEK cells, PBS with 0.1% casein, geometric mean (SEM, n)) was 1.92 nM and the “GLP-1R GRK2 Recruitment Top” value (GLP-1R [3]; efficacy (% Top), relative to maximal GLP-1, (SEM)) was 39.4 (3.7) %. The Kd [4] was 1690 nM.
